Read-outs that look alike come from different tables or passages of the source.
Key:
U87MG-R cells = test: Cell proliferation/viability assay (CCK8 kit; text says MTT), U87MG-R; type: cell-based; settings: Homo sapiens; U87MG-R cells (TMZ-resistant); single agent; FIG. 2B/2C; read-out: IC50 values (alone)
From the text: (§1) Four GBM cell lines U87, U87R, A172, and A172R were used in this study. The American Type Culture Collection (ATCC; Manassas, Va., USA) provided human GBM cell lines U87-MG (ATCC HTB-14; GBM of unknown origin) and A172 (ATCC CRL-1620; ATCC). U87R and A172R cells were obtained from Dr. Tsung-I Hsu and Dr. Jian-Ying Chung (The Ph.D. Program for Neural Regenerative Medicine, College of Medical Science and Technology, Taipei Medical University, Taipei, Taiwan). These cells were maintained in Dulbecco's modified Eagle medium (DMEM) with 10% fetal bovine serum (FBS) and 50 μM TMZ for at least 60 days. TMZ resistance in U87R and A172R cells was confirmed using the colony formation assay (FIG. 11). Cells were cultured in DMEM supplemented with 10% FBS, 100 U/mL penicillin, […] streptomycin (all from Gibco; Thermo Fisher Scientific, Waltham, Mass., USA) and maintained in a humidified incubator at 37° C. and 5% CO2. NBM-BMX (BMX), (E)-2-(4-Methoxybenzyloxy)-3-prenyl-4-methoxy-N-hydroxycinamide, was provided by NatureWise Biotech & Medicals Corporation (Taipei, Taiwan).
(§2) We plated 3000 GBM cells per well in 96-well plates and allowed them to adhere overnight. […] Following treatment, the absorption value was measured using a CCK8 kit (Targetmol, Shanghai, China) at the indicated time points. […]

A172 cells = test: Cell proliferation/viability assay (CCK8 kit; text says MTT), A172; type: cell-based; settings: Homo sapiens, A 172, single agent, FIG. 2B/2C, read-out: IC50 values (alone)
From the text: as §1, §2

A172-R cells = test: Cell proliferation/viability assay (CCK8 kit; text says MTT), A172-R; type: cell-based; settings: Homo sapiens; A172-R cells (TMZ-resistant); single agent; FIG. 2B/2C; read-out: IC50 values (alone)
From the text: as §1, §2

[1] = statement from literature; cited from earlier work
MGMT = test: Western blot of MGMT in GBM-R cells; type: cell-based, human; settings: A172-R and U87MG-R cells; 50 μM TMZ without or with 5 and 10 μM BMX; 48 hrs; FIG. 5B, 5C
Method: The cells were collected and lysed in RIPA lysis buffer (EMD Millipore Billerica, Mass., USA, 10×RIPA buffer) containing a protease inhibitor. Protein concentration was determined using a protein assay kit (Bio-Rad Laboratories, Hercules, Calif., USA). The SDS loading buffer was mixed with the protein samples. Proteins (20 μg/lane) were separated using 8%-12% SDS-PAGE and transferred to a PVDF membrane, which was blocked with 5% bovine serum albumin at room temperature for 1 hr in tris-buffered saline (TBS)-Tween 20 (0.5%; TBS-T), incubated with primary antibodies overnight at […], and then incubated with horseradish peroxidase (HRP)-conjugated secondary antibodies at room temperature for 1 hr. After washing thoroughly with TBS-T, the HRP signals were detected with a chemical HRP substrate. Signal of each target protein was visualized by incubation with an enhanced chemiluminescent reagent and exposure to X-ray film.

RKO cells = test: CRC cell proliferation assay (CCK8), RKO; type: cell-based; settings: Homo sapiens
Method: (§3) Three CRC cell lines HT29, HCT116 and RKO were used in this study. The American Type Culture Collection (ATCC; Manassas, Va., USA) provided human CRC cell lines HT29 (ATCC HTB-38; mutant TP53, p.R273H; APC frame shift, p. E1554fs; wild type β-catenin), HCT116 (ATCC CCL-247; wild type TP53; wild type APC; deletion β-catenin, p. S45del) and RKO (ATCC CRL-2577; wild type TP53; wild type APC; wild type β-catenin). Three CRC cells lines as listed above were cultured in adherent culture condition, maintained at 37° C. inside the cell incubation containing 5% CO2. The two cell lines of HCT-116 and HT-29 cells were cultured in McCoy's 5A medium with supplemented 10% fetal bovine serum (Gibco; Thermo Fischer Scientific, Grand Island, N.Y., USA)), 1% penicillin and 1% streptomycin. RKO cell was cultured in MEM medium with supplemented 10% FBS, 1% penicillin, 1% streptomycin and 1% sodium pyruvate. The cell cultures were passaged by trypsinization every three days. BM-BMX (BMX), (E)-2-(4-Methoxybenzyloxy)-3-prenyl-4-methoxy-N-hydroxycinamide, was provided by Nature Wise Biotech & Medicals Corporation (Taipei, Taiwan).
(§4) We plated 4000 CRC cells per well in 96-well plates and allowed them to adhere overnight. To validate cell line responsiveness to BMX and TMZ monotherapy, the cells were treated with different doses of BMX or TMZ for 24, 48, and 72 hrs. To confirm cell responsiveness to the BMX-TMZ combination, cells were either treated with different doses of TMZ ([…]) with or without BMX (5 μM) for 24, 48, and 72 hrs or with different doses of BMX (0-10 μM) with or without TMZ (50 μM) for 24, 48, and 72 hrs. Following treatment, the absorption value was measured using a CCK8 kit (Targetmol, Shanghai, China) at the indicated time points. The results are reported as the mean±standard deviation of at least three replicates.

HCT116 cells = test: CRC cell proliferation assay (CCK8), HCT116; type: cell-based; settings: Homo sapiens
Method: as §3, §4

U87MG cells = test: Cell proliferation/viability assay (CCK8 kit; text says MTT), U87MG; type: cell-based; settings: Homo sapiens, U-87 MG, single agent, FIG. 2B/2C, read-out: IC50 values (alone)
From the text: as §1, §2

SMILES: COc1ccc(COc2c(/C=C/C(=O)NO)ccc(OC)c2CC=C(C)C)cc1 [BMX, (E)-2-(4-Methoxybenzyloxy)-3-prenyl-4-methoxy-N-hydroxycinamide]
- IC50 (U87MG-R cells): > 68.1 µM
- IC50 (A172 cells): 21 ± 2.34 µM
- IC50 (A172-R cells): > 52.6 µM
- blood-brain barrier penetration [1]: ability to cross the blood-brain barrier
- MGMT expression (MGMT): moderately decrease MGMT levels
- IC50 (RKO cells; 24 h, BMX alone, 24 hrs, read-out: IC50 of BMX): 38.5 ± 3.5 µM
- IC50 (RKO cells; 24 h, TMZ 50 μM combined with different concentrations of BMX, 24 hrs, read-out: IC50 of BMZ): > 10 µM
- IC50 (RKO cells; 48 h, BMX alone, 48 hrs, read-out: IC50 of BMX): 7.2 ± 0.6 µM
- IC50 (RKO cells; 48 h, TMZ 50 μM combined with different concentrations of BMX, 48 hrs, read-out: IC50 of BMZ): 3.6 ± 0.4 µM
- IC50 (RKO cells; 72 h, BMX alone, 72 hrs, read-out: IC50 of BMX): 1.5 ± 0.2 µM
- IC50 (RKO cells; 72 h, TMZ 50 μM combined with different concentrations of BMX, 72 hrs, read-out: IC50 of BMZ): 0.9 ± 0.1 µM
- IC50 (HCT116 cells; HCT-116, 24 h, BMX alone, 24 hrs, read-out: IC50 of BMX): 24.8 ± 2.5 µM
- IC50 (HCT116 cells; HCT-116, 24 h, TMZ 50 μM combined with different concentrations of BMX, 24 hrs, read-out: IC50 of BMZ): > 10 µM
- IC50 (HCT116 cells; HCT-116, 48 h, BMX alone, 48 hrs, read-out: IC50 of BMX): 7.7 ± 0.3 µM
- IC50 (HCT116 cells; HCT-116, 48 h, TMZ 50 μM combined with different concentrations of BMX, 48 hrs, read-out: IC50 of BMZ): 3.2 ± 0.3 µM
- IC50 (HCT116 cells; HCT-116, 72 h, BMX alone, 72 hrs, read-out: IC50 of BMX): 1.5 ± 0.3 µM
- IC50 (HCT116 cells; HCT-116, 72 h, TMZ 50 μM combined with different concentrations of BMX, 72 hrs, read-out: IC50 of BMZ): 0.9 ± 0.1 µM
- IC50 (U87MG cells): 29.8 ± 2.32 µM

SMILES: Cn1nnc2c(C(N)=O)ncn2c1=O [TMZ, Temozolomide, reference compound]
- IC50 (U87MG-R cells): 303 ± 15.2 µM
- IC50 (A172 cells): 73.5 ± 3.65 µM
- IC50 (A172-R cells): 595 ± 23.4 µM
- blood-brain barrier penetration [1]: good penetration of the blood-brain barrier
- MGMT expression (MGMT): moderately suppress MGMT expression
- IC50 (RKO cells; 24 h, BMX 5 μM combined with different doses of TMZ, 24 hrs, read-out: IC50 of TMZ): > 400 µM
- IC50 (RKO cells; 24 h, TMZ alone, 24 hrs, read-out: IC50 of TMZ): > 1000 µM
- IC50 (RKO cells; 48 h, BMX 5 μM combined with different doses of TMZ, 48 hrs, read-out: IC50 of TMZ): 21.9 ± 2.7 µM
- IC50 (RKO cells; 48 h, TMZ alone, 48 hrs, read-out: IC50 of TMZ): 992 ± 52.4 µM
- IC50 (RKO cells; 72 h, TMZ alone, 72 hrs, read-out: IC50 of TMZ): 380 ± 40.3 µM
- IC50 (HCT116 cells; HCT-116, 24 h, BMX 5 μM combined with different doses of TMZ, 24 hrs, read-out: IC50 of TMZ): > 400 µM
- IC50 (HCT116 cells; HCT-116, 24 h, TMZ alone, 24 hrs, read-out: IC50 of TMZ): > 1000 µM
- IC50 (HCT116 cells; HCT-116, 48 h, BMX 5 μM combined with different doses of TMZ, 48 hrs, read-out: IC50 of TMZ): 41.6 ± 2.4 µM
- IC50 (HCT116 cells; HCT-116, 48 h, TMZ alone, 48 hrs, read-out: IC50 of TMZ): 515 ± 21.6 µM
- IC50 (HCT116 cells; HCT-116, 72 h, TMZ alone, 72 hrs, read-out: IC50 of TMZ): 192 ± 14.7 µM
- IC50 (U87MG cells): 81 ± 1.68 µM
